Values quoted from earlier work in US20020127259A1, “Rumen by-pass delivery system” (priority 1998, published 2002).

details: given by Seghers in 1990

Row | relative rate of phospholipid hydration [%] | Substance
1 | 100 | Phosphatidylcholine
2 | 8.5 | phosphatidic acid
3 | 16 | phosphatidylethanolamine [P-ethanolamine]
4 | 44 | phosphatidylinositol
